# Experimental data published in patent publication US20130115171A1, “NAV1.7-RELATED ASSAYS” (priority 2011, published 2013).
# Entries after “also recorded” stand apart in the source; their conditions may differ. Read-outs that look alike come from different tables or passages of the source.
# Tests used:
# male rats = details: rat, in vivo
# Description: Veratridine was injected intra-plantar at 30 micrograms.
# Known preclinical and clinical analgesics were tested to see if they could prevent veratridine-induced behaviors.
# NaV1.7 [1] = format: in vivo, mouse; details: for Flinching response to paw injection: one microgram
# Description: Activation of one, some, or all of the nine sodium channel isoforms might produce painful behaviors. […] All behavioral experiments were done with the observer blinded as to the mouse genotype or treatment.
# male CD1 mice = format: in vivo, mouse
# NaV1.8 = NaV1.8 (Rattus norvegicus, UniProt Q62968); details: read-out: TTX IC50; cited from earlier work
# Chain of NaV1.8 (Q62968 whole entry, looked up): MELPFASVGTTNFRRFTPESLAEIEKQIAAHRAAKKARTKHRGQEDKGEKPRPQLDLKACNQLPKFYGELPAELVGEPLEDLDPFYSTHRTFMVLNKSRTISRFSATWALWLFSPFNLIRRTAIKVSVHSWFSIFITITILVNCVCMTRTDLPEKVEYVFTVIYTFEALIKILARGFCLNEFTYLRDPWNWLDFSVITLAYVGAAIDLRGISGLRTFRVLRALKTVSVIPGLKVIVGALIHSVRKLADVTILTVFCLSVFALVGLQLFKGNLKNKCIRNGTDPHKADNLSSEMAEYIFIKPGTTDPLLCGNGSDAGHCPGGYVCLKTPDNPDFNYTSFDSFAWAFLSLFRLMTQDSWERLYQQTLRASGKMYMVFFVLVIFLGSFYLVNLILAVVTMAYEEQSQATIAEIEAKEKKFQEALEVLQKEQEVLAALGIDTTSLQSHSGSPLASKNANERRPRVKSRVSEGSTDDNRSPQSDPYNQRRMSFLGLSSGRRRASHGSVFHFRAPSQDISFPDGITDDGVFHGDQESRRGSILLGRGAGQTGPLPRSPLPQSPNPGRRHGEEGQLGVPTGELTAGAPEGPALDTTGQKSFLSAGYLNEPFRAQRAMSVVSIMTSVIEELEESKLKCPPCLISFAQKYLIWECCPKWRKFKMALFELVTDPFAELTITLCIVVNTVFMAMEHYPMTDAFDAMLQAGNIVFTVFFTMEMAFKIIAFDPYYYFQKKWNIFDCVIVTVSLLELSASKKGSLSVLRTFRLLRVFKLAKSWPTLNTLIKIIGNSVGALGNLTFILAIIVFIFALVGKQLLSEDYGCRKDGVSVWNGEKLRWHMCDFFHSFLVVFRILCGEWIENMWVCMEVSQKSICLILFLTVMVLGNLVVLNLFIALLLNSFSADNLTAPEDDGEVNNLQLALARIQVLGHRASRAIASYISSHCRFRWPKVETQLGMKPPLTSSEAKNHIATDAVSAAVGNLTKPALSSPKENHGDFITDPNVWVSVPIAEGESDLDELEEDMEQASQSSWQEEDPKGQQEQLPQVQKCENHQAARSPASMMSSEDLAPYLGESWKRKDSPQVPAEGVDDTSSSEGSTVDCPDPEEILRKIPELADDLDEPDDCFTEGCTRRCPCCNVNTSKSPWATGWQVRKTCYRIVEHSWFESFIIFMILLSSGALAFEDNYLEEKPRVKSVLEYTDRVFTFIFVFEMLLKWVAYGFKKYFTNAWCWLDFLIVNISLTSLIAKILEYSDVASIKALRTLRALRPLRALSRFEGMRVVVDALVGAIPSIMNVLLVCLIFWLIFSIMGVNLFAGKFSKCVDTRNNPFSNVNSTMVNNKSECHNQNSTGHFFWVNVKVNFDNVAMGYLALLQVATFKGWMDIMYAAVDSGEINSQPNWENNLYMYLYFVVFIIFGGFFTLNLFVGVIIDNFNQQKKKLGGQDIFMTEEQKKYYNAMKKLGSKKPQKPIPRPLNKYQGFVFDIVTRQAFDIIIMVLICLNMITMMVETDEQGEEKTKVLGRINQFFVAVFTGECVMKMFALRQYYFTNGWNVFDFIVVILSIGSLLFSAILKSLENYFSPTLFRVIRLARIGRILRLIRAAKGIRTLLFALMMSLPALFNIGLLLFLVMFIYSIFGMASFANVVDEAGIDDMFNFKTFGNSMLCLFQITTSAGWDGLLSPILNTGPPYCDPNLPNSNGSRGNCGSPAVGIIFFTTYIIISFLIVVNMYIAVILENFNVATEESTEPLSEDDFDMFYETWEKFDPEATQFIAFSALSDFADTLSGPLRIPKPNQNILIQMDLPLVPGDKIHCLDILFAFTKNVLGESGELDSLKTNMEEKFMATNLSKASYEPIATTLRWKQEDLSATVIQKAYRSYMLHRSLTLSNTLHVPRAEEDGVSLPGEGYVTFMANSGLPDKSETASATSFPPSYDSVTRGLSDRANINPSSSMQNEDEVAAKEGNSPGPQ
# NaV1.4 = NaV1.4 (Rattus norvegicus, UniProt P15390); details: read-out: TTX IC50; cited from earlier work
# NaV1.6 = NaV1.6 (Rattus norvegicus, UniProt O88420); details: read-out: TTX IC50; cited from earlier work
# NaV1.7 [2] = biological target: NaV1.7 (Rattus norvegicus, UniProt O08562); details: read-out: TTX IC50; cited from earlier work
# NaV1.3 = NaV1.3 (Rattus norvegicus, UniProt P08104); details: read-out: TTX IC50; cited from earlier work
# hNaV1.7 = hNaV1.7 (Homo sapiens, UniProt Q15858)
# Chain of hNaV1.7 (Q15858 whole entry): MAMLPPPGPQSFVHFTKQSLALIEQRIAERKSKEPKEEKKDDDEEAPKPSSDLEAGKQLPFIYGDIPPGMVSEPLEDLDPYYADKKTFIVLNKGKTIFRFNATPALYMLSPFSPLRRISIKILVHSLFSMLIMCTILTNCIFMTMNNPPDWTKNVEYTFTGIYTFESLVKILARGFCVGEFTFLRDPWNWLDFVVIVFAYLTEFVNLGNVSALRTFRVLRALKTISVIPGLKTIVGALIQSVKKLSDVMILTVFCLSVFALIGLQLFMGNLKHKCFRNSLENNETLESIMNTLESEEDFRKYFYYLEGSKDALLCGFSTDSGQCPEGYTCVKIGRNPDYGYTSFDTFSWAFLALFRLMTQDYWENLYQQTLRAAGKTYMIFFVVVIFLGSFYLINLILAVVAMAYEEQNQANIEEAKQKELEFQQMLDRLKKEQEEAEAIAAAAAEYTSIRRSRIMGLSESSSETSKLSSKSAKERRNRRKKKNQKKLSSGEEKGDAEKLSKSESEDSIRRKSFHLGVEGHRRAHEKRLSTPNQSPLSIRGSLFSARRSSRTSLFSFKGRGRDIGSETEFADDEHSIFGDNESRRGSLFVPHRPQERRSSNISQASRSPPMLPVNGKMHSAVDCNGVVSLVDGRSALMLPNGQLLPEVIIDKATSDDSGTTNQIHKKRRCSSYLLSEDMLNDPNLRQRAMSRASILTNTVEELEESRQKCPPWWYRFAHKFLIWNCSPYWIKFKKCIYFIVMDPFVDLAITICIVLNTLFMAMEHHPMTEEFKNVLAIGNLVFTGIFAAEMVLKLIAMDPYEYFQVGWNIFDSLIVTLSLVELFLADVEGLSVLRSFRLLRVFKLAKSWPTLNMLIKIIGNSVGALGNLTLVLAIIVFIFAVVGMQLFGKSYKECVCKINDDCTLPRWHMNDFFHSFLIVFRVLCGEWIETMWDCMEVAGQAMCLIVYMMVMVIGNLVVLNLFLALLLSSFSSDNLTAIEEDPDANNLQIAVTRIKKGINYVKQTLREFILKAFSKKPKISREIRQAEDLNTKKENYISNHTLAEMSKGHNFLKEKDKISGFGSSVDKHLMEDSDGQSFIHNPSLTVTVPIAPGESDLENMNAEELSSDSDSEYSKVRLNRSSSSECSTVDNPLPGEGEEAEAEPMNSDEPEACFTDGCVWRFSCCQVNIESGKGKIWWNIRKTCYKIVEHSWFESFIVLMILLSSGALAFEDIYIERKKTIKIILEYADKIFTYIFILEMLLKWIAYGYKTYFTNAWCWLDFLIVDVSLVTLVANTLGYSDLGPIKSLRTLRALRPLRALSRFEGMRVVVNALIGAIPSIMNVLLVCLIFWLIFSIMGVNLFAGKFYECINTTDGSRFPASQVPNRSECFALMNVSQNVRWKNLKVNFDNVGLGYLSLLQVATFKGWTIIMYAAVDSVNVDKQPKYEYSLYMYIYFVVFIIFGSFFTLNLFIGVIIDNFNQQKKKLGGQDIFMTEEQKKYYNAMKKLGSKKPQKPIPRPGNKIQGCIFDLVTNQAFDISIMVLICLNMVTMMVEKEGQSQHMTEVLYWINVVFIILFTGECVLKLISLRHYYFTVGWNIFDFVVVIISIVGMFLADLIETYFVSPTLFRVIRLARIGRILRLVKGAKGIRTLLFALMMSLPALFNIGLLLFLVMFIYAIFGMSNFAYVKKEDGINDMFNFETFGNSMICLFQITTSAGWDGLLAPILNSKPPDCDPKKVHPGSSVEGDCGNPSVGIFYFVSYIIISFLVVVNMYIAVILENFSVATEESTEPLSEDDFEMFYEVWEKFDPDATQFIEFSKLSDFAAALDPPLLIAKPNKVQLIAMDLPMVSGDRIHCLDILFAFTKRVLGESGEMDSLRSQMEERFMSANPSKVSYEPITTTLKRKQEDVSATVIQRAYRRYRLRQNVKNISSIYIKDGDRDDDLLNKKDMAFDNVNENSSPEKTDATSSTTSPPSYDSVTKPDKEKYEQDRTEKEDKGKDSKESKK
compound,measurement,setting,value
CN1C(=O)CN=C(c2ccccc2)c2cc(Cl)ccc21 [Diazepam],Inhibition of veratridine-induced pain-like behaviors (licking and paw-flinching),male rats,ineffective
same,Significant Reversal of Edema,male rats,No
same,Significant Reversal of Flinching,male rats,No
same,Significant Reversal of Lifting,male rats,No
"CNCC[C@H](Oc1cccc2ccccc12)c1cccs1 [Duloxetine, duloxetine]",Inhibition of veratridine-induced pain-like behaviors (licking and paw-flinching),male rats,inhibited somewhat
same,Significant Reversal of Edema,male rats,No
"NCC1(CC(=O)O)CCCCC1 [Gabapentin, gabapentin]",Inhibition of veratridine-induced pain-like behaviors (licking and paw-flinching),male rats,not all
same,Significant Reversal of Edema,male rats,No
"Cc1cccc(C)c1OCC(C)N (stereo not shown) [Mexiletine, mexiletine]",Inhibition of veratridine-induced pain-like behaviors (licking and paw-flinching),male rats,inhibited fully
same,Significant Reversal of Edema,male rats,Yes
same,Significant Reversal of Flinching,male rats,Yes
same,Significant Reversal of Lifting,male rats,Yes
same,Lifting and flinching behaviors,male rats; po,prevented in a dose-dependent manner
same,Prevention of veratridine-induced flinching / lifting/licking,"NaV1.7 [1]; mouse, in vivo",prevents the flinching behavior; also recorded: prevented flinching
same,Block of effects of veratridine (total lifting time),"male CD1 mice; mouse, in vivo, ip, 30 mg/kg",blocked
same,Prevention of lifting/licking response to deltamethrin,"male CD1 mice; mouse, in vivo, ip, 30 mg/kg",prevented the lifting/licking response
same,Prevention of lifting/licking response to grayanotoxin III,"male CD1 mice; mouse, in vivo, ip, 30 mg/kg",prevented the lifting/licking response
"CN1CC[C@]23c4c5ccc(O)c4O[C@H]2[C@@H](O)C=C[C@H]3[C@H]1C5 [Morphine, morphine]",Inhibition of veratridine-induced pain-like behaviors (licking and paw-flinching),male rats,inhibited somewhat
same,Significant Reversal of Edema,male rats,No
"COc1ccc2cc([C@H](C)C(=O)O)ccc2c1 [Naproxen, naproxen]",Significant Reversal of Edema,male rats,No
"NC1=N[C@H](O)[C@H]2[C@H]3O[C@]4(O)O[C@@H]([C@@H](O)[C@@]2(N1)[C@@H]4O)[C@]3(O)CO [TTX, tetrodotoxin]",IC50,NaV1.8,> 50000 nM
same,IC50,NaV1.4,5 nM
same,IC50,NaV1.6,1 nM
same,IC50,NaV1.7 [2],4 nM
same,IC50,NaV1.3,2 to 15 nM
CC1(C)[C@H](C(=O)O[C@H](C#N)c2cccc(Oc3ccccc3)c2)[C@@H]1C=C(Br)Br [deltamethrin],Lifting/licking response (total flinches) after injection,"male CD1 mice; male CD1 mice, 10 microgram suspension dose of deltamethrin",produced a lifting/licking response
CC1(O)CC23CC(O)C4(O)C(CC(O)C4(C)C)C(C)(O)C2CCC1C3O (stereo not shown) [grayanotoxin III],Activation of hNaV1.7,hNaV1.7,activated hNaV1.7; also recorded: activated NaV1.7
same,Voltage at which sodium currents start to activate,hNaV1.7,−95 mV
same,Lifting/licking response (total flinches) after injection,"male CD1 mice; mouse, in vivo",produced a lifting/licking response
"COc1ccc(C(=O)O[C@H]2CC[C@@]3(C)[C@@H]4CC[C@@H]5C3(C[C@@]3(O)[C@@H]6CN7C[C@@H](C)CC[C@H]7[C@@](C)(O)[C@@]6(O)[C@@H](O)C[C@@]53O)O[C@]24O)cc1OC [veratridine, 4α,9-Epoxy-3β-veratroyloxy-5β-cevan-4β,12,14,16β,17,20-hexaol]","Pain-related behaviors (paw lifting/licking, flinching) after injection into the paw",male rats,caused two separate pain-related behaviors
same,Side effects at higher doses,male rats,variable neurological side effects
same,Flinching response to paw injection,NaV1.7 [1]; global NaV1.7 knockout mice,no flinching or licking behavior; also recorded: no effect; also recorded: no response
same,Flinching response to paw injection,NaV1.7 [1]; wild type heterozygote mice,robust flinching behavior; also recorded: robust flinching response
same,Lifting behavior after i.pl. injection,"male CD1 mice; mouse, in vivo",caused equivalent lifting behavior
